# Columns and labels:
# ERK, Akt = experiment: Western blot for pERK Y204, ERK, pAkt473 and Akt; format: cell-based, human
# Experimental: Western blot. Cells were lysed in 25 mM Tris, 150 mM NaCl, 10% glycerol, 1% NP 40 and […] EDTA with a protease Mini-complete protease inhibitors (Roche) and a phosphatase inhibitor cocktail (PhosSTOP, Roche) at 4° C. for 20 minutes. Protein lysates were separated by SDS-PAGE, transferred to a nitrocellulose membrane and blocked with Odyssey Blocking Buffer (LiCor). Membranes were incubated with primary antibody overnight at 4° C. and Licor secondary antibodies at room temperature for 1 hour. Protein level intensity was measured with Image J.
# (§1) The MAPK signaling cascade is among the key pathways known to interact with MTs. Both ERK1/2 interact with MTs; MT stabilization by paclitaxel increases ERK phosphorylation and, in turn, ERK pathway activation increases MT dynamics.
# microtubules (MT) [1] = experiment: MT length image analysis; format: cell-based, human; details: 231-MENA^INV cells, 10 nM paclitaxel 24 hours
# microtubules (MT) [2] = experiment: Immunofluorescence ratio of Glu-MT (stable) to Tyr-MT (dynamic); format: cell-based, human
# Experimental: Immunofluorescence. Glass bottom dishes (Mattek) were coated with Collagen at 0.1 mg/mL diluted in PBS and 50 μg/mL FN for 1 hour at 37° C. Cells were plated for 1 hour, and then treated with paclitaxel alone or in combination with MEKi for 24 hours. Cells were fixed for 20 minutes in 4% paraformaldehyde in PHEM buffer with 0.1% Gluteraldehyde, and then quenched with sodium borohydrate for 5 minutes. Cells were blocked with 2% BSA in TBS-0.1%TritonX-100 for 30 minutes, and incubated with primary antibodies and then secondary antibodies for 1 hour each, at room temperature. Z series of images were taken on an Applied Precision DeltaVision microscope using Softworx acquisition, an Olympus 60×1.4 NA plan apo objective and a Photometrics CoolSNAP HQ camera. Images were deconvolved using Deltavision Softworx software and objective specific point spread function. Images were analyzed with ImageJ, where the whole cell intensity levels of Tyr- or Glu-MT was measured. Images are pooled from at least 3 independent experiments.
# Paclitaxel promotes cell death by increasing the stability of MTs, and pathways driving increased MT dynamics are known to promote resistance to taxanes. Therefore, MT structure and dynamics in MENA isoform expressing cells was examined during paclitaxel treatment. […] Post-translational modification of MTs can regulate their dynamics, and antibodies that detect such modifications can be used to infer the relative dynamics of MT populations; in particular, MT tyrosination indicates a dynamic MT state, while de-tyrosination of MTs is associated with increased stability. The relative abundance of stable (Glu-MT) vs. dynamic (Tyr-MT) MTs was measured in individual cells by immunofluorescence with anti-Glu-MT and anti-Tyr-MT antibodies (FIGS. 37A, 37B).
# as §1
# MDA-MB-231 cells [3] = experiment: Cell viability assay (Prestoblue) in MDA-MB-231 cells expressing GFP, GFP-Mena or GFP-Mena^INV; details: 72 h of treatment with Taxol at 100 nM, 1 μm or 10 μM
# Experimental: Cell viability assays were performed in a 96-well plate. 5,000 cells were plated per well and treated with drug 24 hours later. Cell viability was assayed 72 hours later using the PrestoBlue Cell Viability Reagent (Life Technologies), according to manufacturer's protocol. Fluorescence was measured and normalized to cells exposed to vehicle. The activity area was calculated from doseresponse plots using Matlab. All measurements were repeated in triplicate.
# MDA-MB-231 cells [4] = experiment: In vitro imaging of cell velocity on collagen; format: cell-based, human; details: 231-Control, 231-MENA, 231-MENA^INV; paclitaxel 1, 10 or 100 nM
# Experimental: In vitro imaging. Glass bottom dishes were coated with Co11agen at 0.1 mg/mL diluted in PBS for 1 hour at 37° C. Cells expressing different MENA isoform were treated with paclitaxel at 1, 10 or 100 nM or vehicle and immediately plated on the glass bottom dishes. 30 minutes later, cells were imaged overnight, with one image acquired every 10 minutes for 16 hours on a Nikon spinning disk with a 20× objective and an Andor/NeoZyla camera. Individual cells were manually tracked using ImageJ and Manual Tracking plug-in. Data were analyzed using the chemotaxis tool developed by IBIDI. For analysis of time spent in cell division, the time between when the mother cell first rounds up, to when both daughter cells have spread out on substrate was measured. The percentage of successful cell divisions was quantified by counting the number of cell divisions that lead to two surviving daughter cells. Data are pooled from at least 50 cells tracked in three independent experiments.
# MENA and MENA^INV drive increased cell motility and metastasis during tumor progression. Therefore, whether MENA isoform expression impacts cell migration and dissemination after paclitaxel treatment was examined.
# [5] = 72 hours of paclitaxel treatment, all three cell lines
structure (smiles),measurement,setting,value
CC(=O)O[C@H]1C(=O)[C@@]2(C)[C@H]([C@H](OC(=O)c3ccccc3)[C@]3(O)C[C@H](OC(=O)[C@H](O)[C@@H](NC(=O)c4ccccc4)c4ccccc4)C(C)=C1C3(C)C)[C@]1(OC(C)=O)CO[C@@H]1C[C@@H]2O [paclitaxel],total ERK levels,"ERK, Akt; 72 hours of paclitaxel treatment",unchanged
same,pERK Y204 levels,"ERK, Akt; 72 hours of paclitaxel treatment (10 or 100 nM)",231-MENA and 231-MENA^INV cells had higher levels of pERK Y204 relative to 231-Control cells
same,pAkt473 levels,"ERK, Akt; [5]",decreased pAkt473 levels equally
same,total Akt levels,"ERK, Akt; [5]",without significantly changing
same,MT length,microtubules (MT) [1],small but significant increase
same,relative ratio of stable (Glu-MT) to dynamic (Tyr-MT) MTs,"microtubules (MT) [2]; 231-Control cells, 10 nM paclitaxel 24 hours",significant increase
same,relative levels of stable to dynamic MTs,"microtubules (MT) [2]; 231-MENA and 231-MENA^INV cells, 10 nM paclitaxel 24 hours",no change
same,"stable MTs relative to dynamic MTs, either drug alone","microtubules (MT) [2]; 231-MENA^INV cells, single drug, 24 hours",had no effect
same,fraction of viable GFP-Mena or GFP-Mena^INV cells higher than fraction of viable GFP (Control) cells,MDA-MB-231 cells [3],at least 65%
same,cell velocity in vitro,MDA-MB-231 cells [4],decreased velocity
